# Read-outs that look alike come from different tables or passages of the source.
# Tests used:
# [1] = tested on: thrombocyte aggregation (U 46619-induced); assay: TX antagonistic effect: inhibition of U 46619-induced thrombocyte aggregation in platelet-rich plasma (Born and Cross); assay type: cell-based; details: human platelet-rich plasma, citrate, aggregation followed over 5 minutes, read-out: Thromboxane Aggregation IC50
# Description: 1. TX Antagonistic Effect of Human […]
# The thrombocyte aggregation is investigated by the method of Born and Cross (J. Physiol. 168, 178 (1963) in platelet-rich plasma of healthy blood donors. To inhibit clotting, the blood is mixed with 3.2% citrate in a ratio by volume of 1:9.
# To induce thrombocyte aggregation, U 46619 (Upjohn & Co., Kalamazoo, USA), which is a stable analog of the prostaglandin endoperoxide […], is used. U 46619 was characterized as a selective thromboxane mimetic (Coleman et al., Brit. J. Pharmacol. 68, 127 P., 1980).
# The aggregation test is carried out in a 4-channel aggregometer (Profiler® of the Bio/Data Co., USA). The course of the aggregation is followed over a period of 5 minutes. At the end of the test, the degree of aggregation attained is printed out. These values, which are obtained in the presence of different concentrations of the substance to be tested, are used for the determination of the IC50 for the TX antagonistic effect. The effectiveness varies inversely with the IC50 value.
# [2] = tested on: U 46619-Induced Pulmonary Embolism; assay: Preventing the U 46619-induced pulmonary embolism (survival rate of mouse); assay type: in vivo; details: male NMRI mice, lethal U 46619 injected i.v. (tail vein) after 4 hours; for Survival Rate of Mouse 1 mg/kg, 4 h in %: 1 mg/kg by stomach tube; for responders at 25 mg/kg: Mus musculus, iv
# Experimental: 2. Preventing the U 46619-Induced Pulmonary Embolism
# Male NMRI mice, with a body weight of 25 g. are used. The test substance is suspended in 1% methylcellulose and administered to the experimental animals with the help of a stomach tube. The provocation test consists of injecting the lethal dose (800-1000/μg/kg) of the thromboxane mimetic (U 46619 of the Upjohn Co.) rapidly into the tail vein. The duration of the specific antagonistic effect is tested by pretreating the animals with 25 mg or 1 mg/kg of the different test substances and injecting U 46619 after 4 hours. The survival rate indicates how many of the animals used have survived the injection of the thromboxane mimetic.
Compound,IC50 [1],"Survival Rate of Mouse 1 mg/kg, 4 h in % [2]","Survival Rate of Mouse 25 mg/kg, 4 h in % ([2]; 25 mg/kg by stomach tube)",IC50 ([1]; 5 min),responders at 25 mg/kg ([2]; 25 mg/kg by stomach tube)
9-(4-Chlorobenzenesulphonamido)-3-thianonanoic acid [Example 6],3.4 µM,100%,80%,,
"O=C(O)CSCCCCCCNS(=O)(=O)c1ccc(Cl)cc1 [Example 4, 9-(4-Chlorobenzenesulphonamido)-3-thianonanoic acid]",,,,1.3 µM,40%
"O=C(O)C[S+]([O-])CCCCCCNS(=O)(=O)c1ccc(Cl)cc1 (stereo not shown) [Example 5, 9-(4-Chlorobenzenesulphonamido)-3-thianonanoic acid 3-oxide]",,,,2.1 µM,40%
"O=C(O)CSCCC/C=C\CNS(=O)(=O)c1ccc(Cl)cc1 [Example 7, (Z)-9-(4-Chlorobenzenesulphonamido)-3-thia-7-enenonanoic acid]",,60%,,1.4 µM,100%
"CC(C)(CCSCCNS(=O)(=O)c1ccc(Cl)cc1)C(=O)O [Example 8, 7-(4-Chlorobenzenesulphonamido)-2,2-dimethyl-5-thiaheptanoic acid]",,,,13 µM,40%
"CC(C)(CCSCCNS(=O)(=O)c1ccc(Cl)cc1)CC(=O)O [Example 8.3, 8-(4-Chlorobenzenesulphonamido)-3,3-dimethyl-6-thiaoctanoic acid]",,,,5 µM,40%
"CC(C)(SCCCCCNS(=O)(=O)c1ccc(Cl)cc1)C(=O)O [Example 9, 8-(4-Chlorobenzenesulphonamido)-2,2-dimethyl-3-thiaoctanoic acid]",,,,5.2 µM,40%
"COc1ccc(S(=O)(=O)NCCCCCSC(C)(C)C(=O)O)cc1 [Example 9.2, 8-(4-Methoxybenzenesulphonamido)-2,2-dimethyl-3-thiaoctanoic acid]",,20%,,100 µM,60%
"CC(C)(CCCSCCCNS(=O)(=O)c1ccc(Cl)cc1)C(=O)O [Example 11, 9-(4-Chlorobenzenesulphonamido)-2,2-dimethyl-6-thianonanoic acid]",,0%,,60 µM,80%
"CC(C)(CCSCCCNS(=O)(=O)c1ccc(Cl)cc1)CC(=O)O [Example 11.2, 9-(4-Chlorobenzenesulphonamido)-3,3-dimethyl-6-thianonanoic acid]",,0%,,100 µM,80%

# Reference: patent US4981873A, “Substituted sulphonamides, pharmaceuticals thereof and methods of using them” (Boehringer Mannheim GmbH, priority 1988, dated 1991)
